Active and inactive are the calls of the source. The rule behind the calls is not given here.
Tests used:
[1] = system: Middle East respiratory syndrome-related coronavirus; test: Antiviral activity against MERS-CoV EMC/2012 infected in African green monkey Vero cells pretreated with compound followed by viral infection and measured at 72 hrs post-infection by MTS assay; assay type: functional, organism-based
Zika virus = test: Antiviral activity against ZIKV SL0612 infected in African green monkey Vero CCL81 cells pretreated with compound followed by viral infection and measured at 96 hrs post-infection by MTS assay; assay type: functional, organism-based
Vero C1008 = test: Cytotoxicity against African green monkey Vero E6 cells assessed as reduction in cell viability measured after 96 hrs by MTS assay; assay type: cell-based; conditions: chlorocebus sabaeus, vero c1008, 96 h
Adenosylhomocysteinase = Adenosylhomocysteinase (Homo sapiens, UniProt P23526); test: Inhibition of human placental SAH hydrolase expressed in Escherichia coli JM109 using SAH as substrate preincubated for 10 mins followed by SAH addition and measured after 20 mins by DNTB reagent-based spectrophotometric method
SARS-CoV = test: Antiviral activity against SARS-CoV Frankfurt1 infected in African green monkey Vero E6 cells pretreated with compound followed by viral infection and measured at 72 hrs post-infection by MTS assay; assay type: functional, organism-based; conditions: Severe acute respiratory syndrome-related coronavirus; Frankfurt 1; Vero C1008
Chikungunya virus = test: Antiviral activity against CHIKV LS3 infected in African green monkey Vero E6 cells assessed as reduction in virus-induced cytopathic effect pretreated with compound followed by viral infection and measured at 96 hrs post-infection by MTS assay; assay type: functional, organism-based; conditions: LS3, Vero C1008
[2] = Selectivity index, ratio of CC50 for African green monkey Vero E6 cells to EC50 for antiviral activity against CHIKV-LS3 infected in African green monkey Vero E6 cells; assay type: toxicity, Vero C1008; conditions: read-out: Ratio CC50/EC50

Sequence of Adenosylhomocysteinase (P23526 whole entry): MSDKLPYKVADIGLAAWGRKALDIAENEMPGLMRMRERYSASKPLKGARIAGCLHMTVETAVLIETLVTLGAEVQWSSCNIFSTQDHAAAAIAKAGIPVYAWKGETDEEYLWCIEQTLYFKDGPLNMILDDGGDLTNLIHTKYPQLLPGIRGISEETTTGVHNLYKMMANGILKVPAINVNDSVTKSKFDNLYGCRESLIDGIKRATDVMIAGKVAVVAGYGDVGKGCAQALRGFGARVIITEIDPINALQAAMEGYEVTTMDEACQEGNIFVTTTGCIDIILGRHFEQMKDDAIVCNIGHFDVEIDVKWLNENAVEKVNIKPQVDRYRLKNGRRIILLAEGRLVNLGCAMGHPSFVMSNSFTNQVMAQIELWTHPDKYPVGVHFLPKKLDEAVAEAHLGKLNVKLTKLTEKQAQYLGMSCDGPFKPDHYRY

Structure (SMILES)	Activity [1]	Activity (Zika virus)	CC50 (Vero C1008) [µM]	IC50 (Adenosylhomocysteinase) [µM]	Activity (SARS-CoV)	EC50 (Chikungunya virus) [µM]	selectivity ratio [2]
Nc1ncnc2c1ncn2[C@H]1[C@H](O)[C@H](O)[C@@H](CCO)C1(F)F	inactive	inactive	> 25	2.03	inactive	> 100	
Nc1ncnc2c1ncn2[C@H]1[C@H](O)[C@H](O)[C@@H](CO)[C@H]1F	Active	Active	> 100		Active	> 100	
CNc1ncnc2c1ncn2[C@H]1[C@H](O)[C@H](O)[C@@H](CCO)C1(F)F	inactive	inactive	> 100	3.05	inactive	> 100	
OCC[C@@H]1[C@@H](O)[C@@H](O)[C@H](n2cnc3c(O)ncnc32)[C@@H]1F	inactive	inactive	> 100	> 100	inactive	> 100	
CNc1ncnc2c1ncn2[C@H]1[C@H](O)[C@H](O)[C@@H](CCO)[C@H]1F	inactive	inactive	> 100	0.37	inactive	> 100	
Nc1ncnc2c1ncn2[C@H]1[C@H](O)[C@H](O)[C@@H](CO)C1(F)F	Active	Active	> 1.25		Active	0.13	
Nc1ncnc2c1ncn2[C@H]1[C@H](O)[C@H](O)[C@@H](CCO)[C@H]1F	inactive	inactive	> 250	0.36	inactive	0.12	> 2080
